These results are taken from ChEMBL document CHEMBL3352354, “Novel FTY720-Based Compounds Stimulate Neurotrophin Expression and Phosphatase Activity in Dopaminergic Cells” (ACS Med Chem Lett, 2014).

Data set [1] is filed under the species Homo sapiens. Briefly: Induction of recombinant PP2A catalytic subunit (unknown origin) activity assessed as phosphate level at 5 uM relative to control.
Data set [2] deals with MN9D. Briefly: Induction of PP2A catalytic subunit activity in mouse MN9D cells assessed as phosphate level at 5 uM. The class given is cell-based.
A short description of data set [3]: Cytotoxicity against mouse MN9D cells assessed as metabolic activity at > 1.5 uM after 72 hrs by MTS assay. The class given is ADME, cell-based.
Data set [4] can be described thus: Neuroprotective activity in mouse MN9D cells assessed as cell division at 0.04 to 0.16 uM after 72 hrs by DAPI staining (reference value: 100 +/- 4.15%). The class given is functional.
A short description of data set [5]: Neuroprotective activity in mouse MN9D cells assessed as stimulation of BDNF expression at 0.16 uM after 24 hrs. Type of data set: functional, cell-based.
For data set [6], the system named is MN9D. Briefly: Neuroprotective activity in mouse MN9D cells assessed as blocking of TNF-alpha associated toxicity at 0.16 uM after 72 hrs by Trypan blue staining. The class given is functional, cell-based.
The species entered for data set [7] is Homo sapiens. As to the kind of experiment: Induction of recombinant PP2A catalytic subunit (unknown origin) activity assessed as phosphate level using threonine-phosphopeptide at 5 uM.
For the next data set, the system named is PC-12. As to the kind of experiment: Induction of PP2A catalytic subunit activity in rat PC12 cells assessed as phosphate level at 5 uM measured 30 to 120 mins. Type of data set: cell-based.

Calls of active or inactive are those of the source. The calls are words filed in the database; no cut-off is given here.

Turning to `CCCCCCCCc1ccc(CCC(CO)(CO)NC(=O)CC[P+](c2ccccc2)(c2ccccc2)c2ccccc2)cc1.[Br-]`, in the data set filed under Homo sapiens [1], the fold change (FC) came to 4. Further, the result (with MN9D [2]; in data set [5]) was Active. In addition, the Activity result is “Toxic” in data set [3] and 101.37% in data set [4]. The inhibition result with MN9D [6] is “Active”.
For the compound `CCCCCCCCCCCCC/C=C/[C@H](O)[C@@H](CO)NC(=O)CCCCC`, the result in the data set listed under Homo sapiens [7] was Active.
With `CCCCCCCCc1ccc(CCC(CO)(CO)NC(C)=O)cc1`, in the data set filed under Homo sapiens [1], the fold change (FC) stood at 8. For the same compound, the result (in the data set with MN9D [2]; in data set [5]) was Active. Also, the results for the Activity result in data set [3] and in data set [4] were “Toxic” and 91.44%, respectively. Moreover, the inhibition entry in the data set with MN9D [6] is “Active”.
`CCCCCCCCCCCCC/C=C/[C@H](O)[C@@H](CO)NC(C)=O`: the outcome in the data set filed under Homo sapiens [7] was Active. Further, in the data set filed under Homo sapiens [1], the fold change (FC) was 8.
For the compound `CCCCCCCCc1ccc(CCC(N)(CO)CO)cc1` [FINGOLIMOD], the result (in the data set listed under Homo sapiens [7]; in the data set with PC-12; in the data set with MN9D [2]; in data set [5]) was Active. Moreover, in the data set filed under Homo sapiens [1], the fold change (FC) stood at 4. Also, the figures for the Activity result in data set [3] and in data set [4] were “Toxic” and 98%, respectively. Moreover, the inhibition result in the data set on MN9D [6] was “Active”.
Regarding `CCCCCCCCCCCCC/C=C/[C@H](O)[C@@H](CO)NC(=O)CCCCCCCCC`, the result in the data set listed under Homo sapiens [7] was inactive.
